For series [1], the target named is NRAS G12C (Homo sapiens, UniProt P01111+P62937, G12C). Briefly: Disruption of BRAF RBD interaction with Ras (FRET / MOA assay). The format is biochemical. In short, it runs like this: (§1)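 TR-FRET readout: a drop in ratio versus DMSO wells marks disruption of the Ras:BRAF^RBD complex, reported as IC50. Compound acts via a Cyclophilin A ternary complex with nucleotide-loaded Ras (e.g., GMP-PNP). Top final concentration was 30 μM, 10 points, 3-fold steps.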

The target in series [2] is KRAS G12C (Homo sapiens, UniProt P01116+P62937, G12C). Briefly: Disruption of BRAF RBD interaction with K-Ras (FRET / MOA assay). The format is biochemical. The method, then: (§2) Compound is present in plate wells as a 10-point 3-fold dilution series starting at a final concentration of 30 μM. […] Compounds that facilitate disruption of a Ras:RAF complex are identified as those eliciting a decrease in the TR-FRET ratio relative to DMSO control wells.
(§3) Note—The following protocol describes a procedure for monitoring disruption of K-Ras G12C (GMP-PNP) binding to BRAF^RBD by a compound of the invention. This protocol may also be executed substituting other Ras proteins or nucleotides.
(§4) The purpose of this biochemical assay was to measure the ability of test compounds to facilitate ternary complex formation between a nucleotide-loaded K-Ras isoform and Cyclophilin A; the resulting ternary complex disrupts binding to a BRAF^RBD construct, inhibiting K-Ras signaling through a RAF effector. Data is reported as IC50 values.
(§5) Compound was present in plate wells as a 10-point 3-fold dilution series starting at a final concentration of 30 μM. […] Compounds that facilitate disruption of a K-Ras:RAF complex were identified as those eliciting a decrease in the TR-FRET ratio relative to DMSO control wells.

Series [3] addresses NRAS Q61K (Homo sapiens, UniProt P01111+P62937, Q61K). Nature of the series: Disruption of BRAF RBD interaction with Ras (FRET / MOA assay). The format is biochemical. In short, it runs like this:
as §1

Series [4] concerns the target NRAS WT (Homo sapiens, UniProt P01111+P62937). The series is described as above. The format is biochemical. In short, it runs like this:
as §1

In series [5] the target is NRAS Q61R (Homo sapiens, UniProt P01111+P62937, Q61R). The series is described as above. The format is biochemical. In short, it runs like this: as §1
The target of series [6] is KRAS Q61H (Homo sapiens, UniProt P01116+P62937, Q61H). Briefly: Disruption of BRAF RBD interaction with K-Ras (FRET / MOA assay). The format is biochemical. The method, then:
as §2, §3, §4, §5

For series [7], the target named is KRAS G13C (Homo sapiens, UniProt P01116+P62937, G13C). The description is as above. The note with it: read-out: KRAS G13C FRET data IC50. The format is biochemical. The method, then: as §2, §3, §4, §5
In series [8] the test system is NCI-H358 (K-Ras G12C). Briefly: CellTiter-Glo Cell Viability Assay. The format is cell-based. The note with it: Homo sapiens, NCI-H358, 120 h; H358, 5-day treatment. The method, then: (§6) Determination of Cell Viability in RAS Mutant Cancer Cell Lines
(§7) Protocol: CellTiter-Glo® Cell Viability Assay
(§8) Note—The following protocol describes a procedure for monitoring cell viability of K-Ras mutant cancer cell lines in response to a compound of the invention. Other RAS isoforms may be employed, though the number of cells to be seeded will vary based on cell line used.
(§9) Test compounds (132.5 nl) were directly dispensed into the assay plates containing cells. […] On day 5, assay plates and their contents were equilibrated to room temperature for approximately 30 minutes. […] Luminescence was measured using the PerkinElmer Enspire. Data were normalized by the following: (Sample signal/Avg. DMSO)*100. The data were fit using a four-parameter logistic fit.

In series [9] the test system is Capan-1 (K-Ras G12V). Briefly: CellTiter-Glo Cell Viability Assay. Particulars: Homo sapiens, 120 h; Capan-1, 5-day treatment. The format is cell-based. The method, then:
as §6, §7, §8, §9
A general note: ATP-based viability assays read luminescence as a measure of living cells.

Where [10] appears, read: read-out: KRAS G12C FRET data IC50.
The mark [11] stands for this setting: read-out: NRAS Q61K FRET data IC50.
Setting [12] is: read-out: NRAS WT FRET data IC50.
Setting [13] is: read-out: NRAS Q61R FRET data IC50.
The mark [14] stands for this setting: read-out: KRAS Q61H FRET data IC50.

Where two headings read alike, the source gives them in different places.

Sequence of NRAS Q61R (P01111 whole entry Q61R): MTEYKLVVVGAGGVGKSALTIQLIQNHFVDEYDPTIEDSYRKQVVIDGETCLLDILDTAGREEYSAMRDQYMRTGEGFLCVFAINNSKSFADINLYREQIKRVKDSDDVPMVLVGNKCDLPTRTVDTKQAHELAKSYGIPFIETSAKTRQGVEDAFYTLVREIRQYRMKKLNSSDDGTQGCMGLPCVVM
Sequence of NRAS Q61R (P62937 whole entry): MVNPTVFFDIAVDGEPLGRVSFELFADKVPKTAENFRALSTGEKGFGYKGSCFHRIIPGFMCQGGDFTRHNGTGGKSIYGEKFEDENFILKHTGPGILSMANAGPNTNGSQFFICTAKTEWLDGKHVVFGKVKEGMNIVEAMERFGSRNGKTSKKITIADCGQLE
Sequence of NRAS WT (P01111 whole entry): as the sequence (P01111 whole entry Q61R) above, with R61Q counted along it
Sequence of NRAS WT (P62937 whole entry): as the sequence (P62937 whole entry) above
Sequence of NRAS Q61K (P01111 whole entry Q61K): as the sequence (P01111 whole entry Q61R) above, with R61K counted along it
Sequence of NRAS Q61K (P62937 whole entry): as the sequence (P62937 whole entry) above
Sequence of KRAS G12C (P01116 1-188 isoform P01116-2 G12C): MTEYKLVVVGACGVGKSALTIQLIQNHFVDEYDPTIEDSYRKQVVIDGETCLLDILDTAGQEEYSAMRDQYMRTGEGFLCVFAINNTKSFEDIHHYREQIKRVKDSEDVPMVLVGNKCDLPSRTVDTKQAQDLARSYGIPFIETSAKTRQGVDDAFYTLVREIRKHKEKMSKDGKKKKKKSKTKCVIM
Sequence of KRAS G12C (P62937 whole entry): as the sequence (P62937 whole entry) above
Sequence of KRAS Q61H (P01116 1-188 isoform P01116-2 Q61H): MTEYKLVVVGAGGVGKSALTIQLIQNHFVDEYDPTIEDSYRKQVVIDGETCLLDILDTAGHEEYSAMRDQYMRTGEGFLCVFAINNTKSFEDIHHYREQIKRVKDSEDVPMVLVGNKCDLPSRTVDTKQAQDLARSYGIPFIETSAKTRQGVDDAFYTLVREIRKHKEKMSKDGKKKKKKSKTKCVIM
Sequence of KRAS Q61H (P62937 whole entry): as the sequence (P62937 whole entry) above
Sequence of NRAS G12C (P01111 whole entry G12C): as the sequence (P01111 whole entry Q61R) above, with G12C, R61Q counted along it
Sequence of NRAS G12C (P62937 whole entry): as the sequence (P62937 whole entry) above
Sequence of KRAS G13C (P01116 1-188 isoform P01116-2 G13C): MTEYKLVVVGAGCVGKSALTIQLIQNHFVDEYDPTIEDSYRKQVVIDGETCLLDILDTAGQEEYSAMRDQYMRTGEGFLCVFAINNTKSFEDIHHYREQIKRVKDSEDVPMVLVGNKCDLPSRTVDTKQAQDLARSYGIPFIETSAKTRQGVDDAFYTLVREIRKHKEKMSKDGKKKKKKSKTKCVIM
Sequence of KRAS G13C (P62937 whole entry): as the sequence (P62937 whole entry) above

`CC(C)[Si](Oc1cc2cc(c1)-c1ccc3[nH]c(I)c(c3c1)CC(C)(C)COC(=O)[C@@H]1CCCN(N1)C(=O)[C@@H](NC(=O)OC(C)(C)C)C2)(C(C)C)C(C)C`: where the note is “from CC(C)[Si](Oc1cc(C[C@H](NC(=O)OC(C)(C)C)C(=O)N2CCC[C@@H](C(=O)O)N2)cc(-c2ccc3[nH]c(I)c(CC(C)(C)CO)c3c2)c1)(C(C)C)C(C)C, ester bond, EDCl/HOBt/DIPEA, DCM, 22.8 mM, 25.0 °C, 16.0 h”, the ring closure, yield of all isomers turned out to be 50%.

Regarding `CCn1c(-c2cc(N3CCN(C(=O)OCc4ccccc4)CC3)cnc2[C@H](C)OC)c2c3cc(ccc31)-c1csc(n1)C[C@H](NC(=O)OC(C)(C)C)C(=O)N1CCC[C@H](N1)C(=O)OCC(C)(C)C2`, the ring closure, yield of all isomers (from CCn1c(-c2cc(N3CCN(C(=O)OCc4ccccc4)CC3)cnc2[C@H](C)OC)c(CC(C)(C)CO)c2cc(-c3csc(C[C@H](NC(=O)OC(C)(C)C)C(=O)N4CCC[C@@H](C(=O)O)N4)n3)ccc21, ester bond, EDCl/HOBt/DIPEA, MeCN, 10.34 mM, 25.0 °C, 16.0 h) amounted to 54.8%.

For `CCn1c(-c2cccnc2[C@H](C)OC)c2c3cc(ccc31)-c1csc(n1)C[C@H](NC(=O)OC(C)(C)C)C(=O)N1CCC[C@H](N1)C(=O)OCC(C)(C)C2`, the ring closure, yield of all isomers (from CCn1c(-c2cccnc2[C@H](C)OC)c(CC(C)(C)CO)c2cc(-c3csc(C[C@H](NC(=O)OC(C)(C)C)C(=O)N4CCC[C@@H](C(=O)O)N4)n3)ccc21, ester bond, EDCl/HOBt/DIPEA, DCM, 12.65 mM, 25.0 °C, 16.0 h) came out at 81%.

Take `CCn1c(-c2cccnc2[C@H](C)OC)c2c3cc(ccc31)-c1csc(n1)C[C@H](NC(=O)OC(C)(C)C)C(=O)N1CC[C@H](C)[C@H](N1)C(=O)OCC(C)(C)C2`: the ring closure, yield of all isomers (from CCn1c(-c2cccnc2[C@H](C)OC)c(CC(C)(C)COC(=O)[C@H]2NN(C(=O)[C@H](Cc3nc(Br)cs3)NC(=O)OC(C)(C)C)CC[C@@H]2C)c2cc(B3OC(C)(C)C(C)(C)O3)ccc21, cc_pd bond, Pd(DTBpf)Cl2, K3PO4, dioxane, 17.5 mM, 60.0 °C, 1.0 h) was found to be 44.7%.

Turning to `CCn1c(-c2cccnc2[C@H](C)OC)c2c3cc(ccc31)-c1csc(n1)[C@@H](OC)[C@H](N(Cc1ccccc1)Cc1ccccc1)C(=O)N1CCC[C@H](N1)C(=O)OCC(C)(C)C2`, the ring closure, yield of all isomers (from CCn1c(-c2cccnc2[C@H](C)OC)c(CC(C)(C)COC(=O)[C@@H]2CCCN(C(=O)[C@H]([C@H](OC)c3nc(Br)cs3)N(Cc3ccccc3)Cc3ccccc3)N2)c2cc(B3OC(C)(C)C(C)(C)O3)ccc21, cc_pd bond, Pd(DtBPF)Cl2, dioxane, 40.0 mM, 80.0 °C, 2.0 h) worked out at 44.4%.

The term IC50 denotes the concentration that gives 50% inhibition. `CCn1c(-c2cccnc2[C@H](C)OC)c2c3cc(ccc31)-c1cc(O)cc(c1)C[C@H](NC(=O)[C@H](C(C)C)N(C)C(=O)[C@@H]1C[C@@H]1O)C(=O)N1CCC[C@H](N1)C(=O)OCC(C)(C)C2` (atropisomer, axis not shown) [Compound A323]: the IC50 in [1] and in series [2] (setting [10]) was < 0.01 µM in each case.

Consider `CO[C@@H](C)c1ncccc1-c1c2c3cc(ccc3n1CC(F)(F)F)-c1csc(n1)C[C@H](NC(=O)[C@H](C(C)C)N(C)C(=O)N1CC(N(C)C)C1)C(=O)N1CCC[C@H](N1)C(=O)OCC(C)(C)C2` (atropisomer, axis not shown) [Compound A328], for which the IC50 in series [3] (setting [11]), in [4] (setting [12]), in series [5] (setting [13]), in series [2] (setting [10]) and in series [6] (setting [14]) was > 10 µM in each case.

Take `CCn1c(-c2cccnc2[C@H](C)OC)c2c3cc(ccc31)-c1cc(O)cc(c1)C[C@H](NC(=O)[C@H](C(C)C)N(C)C(=O)[C@H]1CCN(C(=O)C(C)(C)NC)C1)C(=O)N1CCC[C@H](N1)C(=O)OCC(C)(C)C2` (atropisomer, axis not shown) [Compound A381]: the IC50 in series [7] is < 0.01 µM.

Take `CCn1c(-c2cc(N3CCN(C)CC3)cnc2[C@H](C)OC)c2c3cc(ccc31)-c1csc(n1)C[C@H](NC(=O)[C@H](C(C)C)N(C)C(=O)[C@@H]1OCC[C@@H]1c1ccncc1)C(=O)N1CCC[C@H](N1)C(=O)OCC(C)(C)C2` (atropisomer, axis not shown) [Compound A450]: the IC50 in series [8] is < 0.01 µM; in [9] it was < 0.01 µM; in series [3] (setting [11]), 0.01 to 0.1 µM; in series [5] (setting [13]), 0.01 to 0.1 µM.

Consider `CCn1c(-c2cc(N3CCN(C)CC3)cnc2[C@H](C)OC)c2c3cc(ccc31)-c1csc(n1)C[C@H](NC(=O)[C@H](C(C)C)N(C)C(=O)N1CC(C3COC3)C1)C(=O)N1CCC[C@H](N1)C(=O)OCC(C)(C)C2` (atropisomer, axis not shown) [Compound A465], for which the IC50 is < 0.01 µM in [8], < 0.01 µM in series [9], 0.01 to 0.1 µM in series [3] (setting [11]) and 0.01 to 0.1 µM in [5] (setting [13]).

Take `CCn1c(-c2cc(N3CCN(C)CC3)cnc2[C@H](C)OC)c2c3cc(ccc31)-c1csc(n1)C[C@H](NC(=O)[C@H](C1CCCC1)N(C)C(=O)[C@@H]1OCC[C@@H]1c1ccccc1)C(=O)N1CCC[C@H](N1)C(=O)OCC(C)(C)C2` (atropisomer, axis not shown) [Compound A593]: the results for the IC50 in series [8], in series [9] and in series [5] (setting [13]) were < 0.01 µM, < 0.01 µM and 0.01 to 0.1 µM, respectively.

For `CCn1c(-c2cccnc2[C@H](C)OC)c2c3cc(ccc31)-c1cc(cc(NC(C)=O)c1)C[C@H](NC(=O)[C@H](C(C)C)N(C)C(C)=O)C(=O)N1CCC[C@H](N1)C(=O)OCC(C)(C)C2` (racemic) [Compound A145], the IC50 is > 10 µM in series [3]; > 10 µM in series [4]; > 10 µM in [5]; > 10 µM in series [2]; 1 to 10 µM in series [6].

As for `CCn1c(-c2cccnc2[C@H](C)OC)c2c3cc(ccc31)-c1cc(cc(S(C)(=O)=O)c1)C[C@H](NC(=O)[C@H](C(C)C)N(C)C(C)=O)C(=O)N1CCC[C@H](N1)C(=O)OCC(C)(C)C2` (racemic) [Compound A154], the IC50 in series [3] (setting [11]), in series [4] (setting [12]), in series [5] (setting [13]), in [2] (setting [10]) and in series [6] (setting [14]) was > 10 µM throughout.

As for `CCn1c(-c2cccnc2[C@H](C)OC)c2c3cc(ccc31)-c1cc(O)cc(c1)C[C@H](NS(=O)(=O)CC#N)C(=O)N1CCC[C@H](N1)C(=O)OCC(C)(C)C2` (racemic) [Compound A186], the IC50 in [3] (setting [11]), in series [4] (setting [12]), in [5], in series [2] and in [6] (setting [14]) was > 10 µM each time.

As for `CCn1c(-c2cccnc2[C@H](C)OC)c2c3cc(ccc31)-c1cc(O)cc(c1)C[C@H](NS(=O)(=O)N1CCC1)C(=O)N1CCC[C@H](N1)C(=O)OCC(C)(C)C2` (racemic) [Compound A189], the IC50 in series [3] (setting [11]), in [4] (setting [12]), in [5] (setting [13]), in series [2] (setting [10]) and in series [6] (setting [14]) was > 10 µM throughout.

In the case of `CCn1c(-c2cccnc2[C@H](C)OC)c2c3cc(ccc31)-c1cc(O)cc(c1)C[C@H](NS(=O)(=O)C1CS(=O)(=O)C1)C(=O)N1CCC[C@H](N1)C(=O)OCC(C)(C)C2` (racemic) [Compound A191], the IC50 in series [3] (setting [11]), in [4] (setting [12]), in series [5] (setting [13]), in series [2] (setting [10]) and in [6] (setting [14]) was > 10 µM each time.

Take `CCn1c(-c2cccnc2[C@H](C)OC)c2c3cc(ccc31)-c1csc(n1)C[C@H](NC(=O)[C@H](C(C)C)N1CCC3(CN(S(C)(=O)=O)C3)C1=O)C(=O)N1CCC[C@H](N1)C(=O)OCC(C)(C)C2` (racemic) [Compound A234]: the IC50 was > 10 µM in series [5] (setting [13]), > 10 µM in series [2] (setting [10]) and 1 to 10 µM in [6] (setting [14]).

Values taken from US20230374035A1, “RAS INHIBITORS” (Revolution Medicines, Inc., priority 2019, published 2023).
